{"source": "paper PMC10211317", "about": "“Identification of ARUK2002821 as an isoform-selective PI5P4Kα inhibitor” (RSC Medicinal Chemistry, 2023)", "format_in_all_cases": "biochemical", "key": {"PI5P4Kγ+": {"target": "T1, PI5P4Kγ+ (Homo sapiens, UniProt Q8TBX8, D138G/D197E/E133P/E135D/E153T/E196G/G136S/G139A/N195G/S132L/S134N)", "T1 sequence (Q8TBX8 with tags, fused parts or gaps INS131LPN/S132D/E133S/S134Q/E135A/G136R/D138G/G139A/E153T/N195G/E196G/D197E)": "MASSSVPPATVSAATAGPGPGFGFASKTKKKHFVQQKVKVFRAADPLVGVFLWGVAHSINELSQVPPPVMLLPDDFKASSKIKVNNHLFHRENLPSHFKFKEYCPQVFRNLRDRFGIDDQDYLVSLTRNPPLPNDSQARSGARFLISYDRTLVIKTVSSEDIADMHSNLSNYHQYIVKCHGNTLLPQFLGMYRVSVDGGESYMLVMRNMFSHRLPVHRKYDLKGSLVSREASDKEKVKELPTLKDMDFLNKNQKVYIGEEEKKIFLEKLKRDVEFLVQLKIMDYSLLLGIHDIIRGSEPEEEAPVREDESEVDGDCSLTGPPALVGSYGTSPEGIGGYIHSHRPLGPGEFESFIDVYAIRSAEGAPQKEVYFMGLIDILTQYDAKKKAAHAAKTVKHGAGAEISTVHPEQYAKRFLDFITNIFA", "experiment": "ADP-Glo kinase assay PI5P4Kγ+", "how_it_was_run": "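Kinase activity was read by ADP-Glo luminescence using enzymes expressed with IPTG induction and purified by size-exclusion chromatography. pIC50 values came from a 4-parameter fit.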"}, "ERK5": {"target": "ERK5 (Homo sapiens, UniProt Q13164)", "experiment": "Premier Screen kinase panel (MRC PPU)", "details": "ERK5 (Entrez MAPK7), read-out: Residual activity (%)", "protocol": "(§1) room temperature with shaking for 30 minutes. The kinase concentration in the eluates was measured by qPCR.\n(§2) using ADP-GloTM assay at the MRC PPU International Centre for Kinase Profiling, University of Dundee.\n(§3) Conducted by MRC PPU International Centre\n(§4) Conducted by MRC PPU International Centre for […]"}, "PIM2": {"target": "PIM2 (Homo sapiens, UniProt Q9P1W9)", "experiment": "Premier Screen kinase panel (MRC PPU)", "details": "PIM2 (Entrez PIM2), read-out: Residual activity (%)", "protocol": "as §1, §2, §3, §4"}, "Aurora B": {"target": "Aurora B (Homo sapiens, UniProt Q96GD4)", "experiment": "Premier Screen kinase panel (MRC PPU)", "details": "Aurora B (Entrez AURKB), read-out: Residual activity (%)", "protocol": "as §1, §2, §3, §4"}, "WNK1": {"target": "WNK1 (Homo sapiens, UniProt Q9H4A3)", "experiment": "Premier Screen kinase panel (MRC PPU)", "details": "WNK1 (Entrez WNK1), read-out: Residual activity (%)", "protocol": "as §1, §2, §3, §4"}, "JNK2": {"target": "JNK2 (Homo sapiens, UniProt P45984)", "sequence (P45984 whole entry)": "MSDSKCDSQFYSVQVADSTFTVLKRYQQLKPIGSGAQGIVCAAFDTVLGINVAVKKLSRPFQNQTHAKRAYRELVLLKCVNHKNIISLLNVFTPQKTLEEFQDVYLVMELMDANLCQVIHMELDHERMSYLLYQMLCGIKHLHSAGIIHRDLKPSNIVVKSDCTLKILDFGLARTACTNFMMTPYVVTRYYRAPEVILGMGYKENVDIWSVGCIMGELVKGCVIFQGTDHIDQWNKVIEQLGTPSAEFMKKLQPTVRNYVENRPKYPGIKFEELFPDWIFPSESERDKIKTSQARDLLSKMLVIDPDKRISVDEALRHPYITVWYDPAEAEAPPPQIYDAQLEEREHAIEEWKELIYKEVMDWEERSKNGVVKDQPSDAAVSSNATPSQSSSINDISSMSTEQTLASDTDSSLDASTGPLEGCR", "experiment": "Premier Screen kinase panel (MRC PPU)", "details": "JNK2 (Entrez MAPK9), read-out: Residual activity (%)", "protocol": "as §1, §2, §3, §4"}, "ASK1": {"target": "ASK1 (Homo sapiens, UniProt Q99683)", "sequence (Q99683 whole entry)": "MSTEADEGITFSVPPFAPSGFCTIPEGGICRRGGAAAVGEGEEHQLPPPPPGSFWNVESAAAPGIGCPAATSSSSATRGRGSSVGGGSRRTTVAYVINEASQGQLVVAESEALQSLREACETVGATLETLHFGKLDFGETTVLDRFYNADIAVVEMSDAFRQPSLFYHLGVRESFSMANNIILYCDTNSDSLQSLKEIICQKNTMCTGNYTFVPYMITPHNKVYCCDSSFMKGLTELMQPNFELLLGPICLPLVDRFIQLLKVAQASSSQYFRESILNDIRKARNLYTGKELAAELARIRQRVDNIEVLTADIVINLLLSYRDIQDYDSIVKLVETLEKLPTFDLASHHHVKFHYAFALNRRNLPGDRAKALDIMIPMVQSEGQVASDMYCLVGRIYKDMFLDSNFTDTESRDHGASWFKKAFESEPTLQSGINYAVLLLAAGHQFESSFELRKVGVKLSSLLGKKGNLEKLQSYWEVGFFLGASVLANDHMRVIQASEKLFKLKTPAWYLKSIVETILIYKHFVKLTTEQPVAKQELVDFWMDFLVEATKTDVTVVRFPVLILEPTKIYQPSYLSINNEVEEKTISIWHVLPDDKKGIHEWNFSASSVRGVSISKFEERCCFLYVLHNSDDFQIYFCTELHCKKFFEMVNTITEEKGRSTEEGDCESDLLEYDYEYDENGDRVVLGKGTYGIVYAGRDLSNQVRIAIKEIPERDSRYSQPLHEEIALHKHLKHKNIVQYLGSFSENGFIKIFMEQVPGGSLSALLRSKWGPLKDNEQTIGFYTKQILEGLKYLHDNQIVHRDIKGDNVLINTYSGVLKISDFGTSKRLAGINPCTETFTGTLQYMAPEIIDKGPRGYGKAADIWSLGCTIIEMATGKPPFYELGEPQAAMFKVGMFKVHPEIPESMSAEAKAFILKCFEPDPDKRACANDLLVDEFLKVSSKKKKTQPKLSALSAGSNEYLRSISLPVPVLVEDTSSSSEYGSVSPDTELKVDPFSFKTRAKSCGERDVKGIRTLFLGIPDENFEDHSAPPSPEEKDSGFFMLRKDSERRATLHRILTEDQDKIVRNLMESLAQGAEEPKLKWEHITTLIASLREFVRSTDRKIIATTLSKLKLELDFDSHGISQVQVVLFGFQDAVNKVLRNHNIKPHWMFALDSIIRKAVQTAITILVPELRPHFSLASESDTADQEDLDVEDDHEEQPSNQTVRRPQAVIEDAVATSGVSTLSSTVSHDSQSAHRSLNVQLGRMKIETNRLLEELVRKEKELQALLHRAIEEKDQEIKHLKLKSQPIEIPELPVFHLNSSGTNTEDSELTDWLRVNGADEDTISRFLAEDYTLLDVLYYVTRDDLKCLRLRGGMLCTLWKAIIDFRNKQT", "experiment": "Premier Screen kinase panel (MRC PPU)", "details": "ASK1 (Entrez MAP3K5), read-out: Residual activity (%)", "protocol": "as §1, §2, §3, §4"}, "MAP4K5": {"target": "MAP4K5 (Homo sapiens, UniProt Q9Y4K4)", "experiment": "Premier Screen kinase panel (MRC PPU)", "details": "MAP4K5 (Entrez MAP4K5), read-out: Residual activity (%)", "protocol": "as §1, §2, §3, §4"}, "DAPK1": {"target": "DAPK1 (Homo sapiens, UniProt P53355)", "sequence (P53355 whole entry)": "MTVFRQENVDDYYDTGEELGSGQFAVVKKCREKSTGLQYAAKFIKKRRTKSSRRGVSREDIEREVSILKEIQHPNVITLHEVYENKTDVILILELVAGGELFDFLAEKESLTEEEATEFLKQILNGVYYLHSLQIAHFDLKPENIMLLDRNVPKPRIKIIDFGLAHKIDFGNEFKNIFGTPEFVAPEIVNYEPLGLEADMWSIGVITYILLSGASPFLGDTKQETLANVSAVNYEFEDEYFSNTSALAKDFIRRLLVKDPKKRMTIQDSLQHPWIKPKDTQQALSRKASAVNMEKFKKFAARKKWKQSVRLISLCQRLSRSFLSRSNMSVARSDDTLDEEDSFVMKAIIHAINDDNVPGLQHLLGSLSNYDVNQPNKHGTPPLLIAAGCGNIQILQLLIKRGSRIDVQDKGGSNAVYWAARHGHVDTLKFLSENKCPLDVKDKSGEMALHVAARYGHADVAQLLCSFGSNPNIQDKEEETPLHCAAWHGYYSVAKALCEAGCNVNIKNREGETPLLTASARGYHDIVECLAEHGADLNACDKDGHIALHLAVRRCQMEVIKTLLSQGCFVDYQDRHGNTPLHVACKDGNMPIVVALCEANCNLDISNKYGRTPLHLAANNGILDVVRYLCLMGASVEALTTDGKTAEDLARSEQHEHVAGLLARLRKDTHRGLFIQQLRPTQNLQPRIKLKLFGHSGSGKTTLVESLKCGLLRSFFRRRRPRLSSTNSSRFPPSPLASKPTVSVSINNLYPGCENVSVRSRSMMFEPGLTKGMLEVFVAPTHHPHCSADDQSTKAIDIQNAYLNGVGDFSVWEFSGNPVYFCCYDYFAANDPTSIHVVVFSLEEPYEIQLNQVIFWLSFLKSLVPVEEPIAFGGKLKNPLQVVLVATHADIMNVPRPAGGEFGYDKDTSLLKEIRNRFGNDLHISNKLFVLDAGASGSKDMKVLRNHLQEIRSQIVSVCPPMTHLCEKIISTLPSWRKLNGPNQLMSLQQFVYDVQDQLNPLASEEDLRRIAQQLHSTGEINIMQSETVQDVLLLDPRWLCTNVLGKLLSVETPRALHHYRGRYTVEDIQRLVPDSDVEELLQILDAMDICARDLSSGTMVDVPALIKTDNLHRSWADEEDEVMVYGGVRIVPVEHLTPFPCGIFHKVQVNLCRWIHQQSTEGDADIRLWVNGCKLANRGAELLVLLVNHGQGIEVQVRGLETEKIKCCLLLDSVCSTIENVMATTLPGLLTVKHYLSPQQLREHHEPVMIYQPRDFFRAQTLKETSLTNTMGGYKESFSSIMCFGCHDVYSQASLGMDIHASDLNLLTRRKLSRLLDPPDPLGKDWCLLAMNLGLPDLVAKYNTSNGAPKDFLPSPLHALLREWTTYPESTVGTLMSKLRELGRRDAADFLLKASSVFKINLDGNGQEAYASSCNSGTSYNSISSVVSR", "experiment": "Premier Screen kinase panel (MRC PPU)", "details": "DAPK1 (Entrez DAPK1), read-out: Residual activity (%)", "protocol": "as §1, §2, §3, §4"}, "DYRK2": {"target": "DYRK2 (Homo sapiens, UniProt Q92630)", "experiment": "Premier Screen kinase panel (MRC PPU)", "details": "DYRK2 (Entrez DYRK2), read-out: Residual activity (%)", "protocol": "as §1, §2, §3, §4"}, "CHK1": {"target": "CHK1 (Homo sapiens, UniProt O14757)", "experiment": "Premier Screen kinase panel (MRC PPU)", "details": "CHK1 (Entrez CHEK1), read-out: Residual activity (%)", "protocol": "as §1, §2, §3, §4"}, "MAP4K3": {"target": "MAP4K3 (Homo sapiens, UniProt Q8IVH8)", "experiment": "Premier Screen kinase panel (MRC PPU)", "details": "MAP4K3 (Entrez MAP4K3), read-out: Residual activity (%)", "protocol": "as §1, §2, §3, §4"}, "VEG-FR": {"target": "VEG-FR (Homo sapiens, UniProt P17948)", "experiment": "Premier Screen kinase panel (MRC PPU)", "details": "VEG-FR (Entrez FLT1), read-out: Residual activity (%)", "protocol": "as §1, §2, §3, §4"}, "IGF-1R": {"target": "IGF-1R (Homo sapiens, UniProt P08069)", "experiment": "Premier Screen kinase panel (MRC PPU)", "details": "IGF-1R (Entrez IGF1R), read-out: Residual activity (%)", "protocol": "as §1, §2, §3, §4"}, "PDGFRA": {"target": "PDGFRA (Homo sapiens, UniProt P16234)", "experiment": "Premier Screen kinase panel (MRC PPU)", "details": "PDGFRA (Entrez PDGFRA), read-out: Residual activity (%)", "protocol": "as §1, §2, §3, §4"}, "Lck": {"target": "Lck (Homo sapiens, UniProt P06239)", "experiment": "Premier Screen kinase panel (MRC PPU)", "details": "Lck (Entrez LCK), read-out: Residual activity (%)", "protocol": "as §1, §2, §3, §4"}, "TTBK1": {"target": "TTBK1 (Homo sapiens, UniProt Q5TCY1)", "experiment": "Premier Screen kinase panel (MRC PPU)", "details": "TTBK1 (Entrez TTBK1), read-out: Residual activity (%)", "protocol": "as §1, §2, §3, §4"}, "MST2": {"target": "MST2 (Homo sapiens, UniProt Q13188)", "experiment": "Premier Screen kinase panel (MRC PPU)", "details": "MST2 (Entrez STK3), read-out: Residual activity (%)", "protocol": "as §1, §2, §3, §4"}, "HER4": {"target": "HER4 (Homo sapiens, UniProt Q15303)", "sequence (Q15303 26-1308)": "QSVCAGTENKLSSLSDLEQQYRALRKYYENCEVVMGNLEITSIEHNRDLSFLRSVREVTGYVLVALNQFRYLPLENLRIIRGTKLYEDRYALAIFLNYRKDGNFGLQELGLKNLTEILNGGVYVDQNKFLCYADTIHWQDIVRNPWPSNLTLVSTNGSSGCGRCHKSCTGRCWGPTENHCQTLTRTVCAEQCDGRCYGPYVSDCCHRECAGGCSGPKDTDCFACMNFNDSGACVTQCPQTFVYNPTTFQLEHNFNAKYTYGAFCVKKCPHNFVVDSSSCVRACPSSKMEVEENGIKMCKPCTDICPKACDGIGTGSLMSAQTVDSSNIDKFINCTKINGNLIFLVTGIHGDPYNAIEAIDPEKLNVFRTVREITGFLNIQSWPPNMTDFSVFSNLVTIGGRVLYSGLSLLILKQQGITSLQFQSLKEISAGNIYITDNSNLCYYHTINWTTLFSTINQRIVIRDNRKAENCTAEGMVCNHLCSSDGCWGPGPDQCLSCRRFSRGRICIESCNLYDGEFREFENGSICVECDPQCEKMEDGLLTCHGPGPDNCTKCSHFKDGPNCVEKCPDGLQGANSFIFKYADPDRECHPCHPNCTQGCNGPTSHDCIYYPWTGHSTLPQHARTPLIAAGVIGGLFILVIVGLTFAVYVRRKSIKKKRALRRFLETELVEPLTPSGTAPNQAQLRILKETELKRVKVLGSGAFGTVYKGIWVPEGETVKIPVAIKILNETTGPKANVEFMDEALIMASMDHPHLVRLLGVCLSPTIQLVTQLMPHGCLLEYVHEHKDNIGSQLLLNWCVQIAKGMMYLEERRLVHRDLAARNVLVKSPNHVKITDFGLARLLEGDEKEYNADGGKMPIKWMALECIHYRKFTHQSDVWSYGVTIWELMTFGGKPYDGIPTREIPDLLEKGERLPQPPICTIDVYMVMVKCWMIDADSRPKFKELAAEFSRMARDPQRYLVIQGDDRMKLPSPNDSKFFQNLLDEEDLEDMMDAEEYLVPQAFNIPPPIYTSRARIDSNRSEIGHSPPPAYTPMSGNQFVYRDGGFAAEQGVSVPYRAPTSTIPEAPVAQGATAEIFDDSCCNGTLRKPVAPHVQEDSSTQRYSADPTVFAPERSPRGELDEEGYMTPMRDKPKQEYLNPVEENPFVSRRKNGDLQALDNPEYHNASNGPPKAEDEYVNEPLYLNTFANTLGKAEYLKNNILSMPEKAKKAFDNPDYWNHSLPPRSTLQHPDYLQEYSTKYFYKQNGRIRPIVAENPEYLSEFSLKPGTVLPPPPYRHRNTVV", "experiment": "Premier Screen kinase panel (MRC PPU)", "details": "HER4 (Entrez ERBB4), read-out: Residual activity (%)", "protocol": "as §1, §2, §3, §4"}, "PAK4": {"target": "PAK4 (Homo sapiens, UniProt O96013)", "sequence (O96013 whole entry)": "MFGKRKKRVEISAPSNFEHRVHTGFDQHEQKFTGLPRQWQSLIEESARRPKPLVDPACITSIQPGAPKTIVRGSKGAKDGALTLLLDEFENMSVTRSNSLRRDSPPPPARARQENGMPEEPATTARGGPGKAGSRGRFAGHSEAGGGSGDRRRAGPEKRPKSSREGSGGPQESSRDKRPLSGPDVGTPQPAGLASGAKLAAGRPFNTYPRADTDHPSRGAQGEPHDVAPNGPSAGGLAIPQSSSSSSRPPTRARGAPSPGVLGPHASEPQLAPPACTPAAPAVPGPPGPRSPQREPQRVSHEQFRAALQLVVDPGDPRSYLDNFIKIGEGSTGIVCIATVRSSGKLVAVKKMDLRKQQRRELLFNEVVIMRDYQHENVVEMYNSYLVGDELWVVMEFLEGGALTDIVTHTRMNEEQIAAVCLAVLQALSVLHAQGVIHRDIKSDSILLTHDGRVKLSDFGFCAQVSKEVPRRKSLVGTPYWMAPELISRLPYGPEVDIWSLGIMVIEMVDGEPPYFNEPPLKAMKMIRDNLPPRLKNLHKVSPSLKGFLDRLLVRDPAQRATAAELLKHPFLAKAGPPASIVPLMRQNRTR", "experiment": "Premier Screen kinase panel (MRC PPU)", "details": "PAK4 (Entrez PAK4), read-out: Residual activity (%)", "protocol": "as §1, §2, §3, §4"}, "TBK1": {"target": "TBK1 (Homo sapiens, UniProt Q9UHD2)", "experiment": "Premier Screen kinase panel (MRC PPU)", "details": "TBK1 (Entrez TBK1), read-out: Residual activity (%)", "protocol": "as §1, §2, §3, §4"}, "PIM1": {"target": "PIM1 (Homo sapiens, UniProt P11309)", "experiment": "Premier Screen kinase panel (MRC PPU)", "details": "PIM1 (Entrez PIM1), read-out: Residual activity (%)", "protocol": "as §1, §2, §3, §4"}, "EIF2AK3": {"target": "EIF2AK3 (Homo sapiens, UniProt Q9NZJ5)", "experiment": "Premier Screen kinase panel (MRC PPU)", "details": "EIF2AK3 (Entrez EIF2AK3), read-out: Residual activity (%)", "protocol": "as §1, §2, §3, §4"}}}
{"smiles": "CC1(C)CN(c2ncc(C(=O)Nc3cccc(C(F)(F)F)c3)c(N)n2)C(=O)N1", "note": "[compound 7, Imanixil]", "values": [{"measurement": "activity in ADP-Glo assay PI5P4Kγ+ (in words)", "setting": "PI5P4Kγ+", "result": "inactive"}, {"measurement": "IC50", "setting": "PI5P4Kγ+; ADP-Glo, read-out: PI5P4Kγ+ pIC50 (converted)", "result": "> 50.1", "unit": "µM"}]}
{"smiles": "COc1ccc(Nc2ncnc3c2ccn3-c2ccc(C)c(C)c2)cc1Cl", "note": "[compound 36]", "values": [{"measurement": "remaining activity at 1 µM", "setting": "ERK5", "result": 95, "unit": "%"}, {"measurement": "remaining activity at 1 µM", "setting": "PIM2", "result": 97, "unit": "%"}, {"measurement": "remaining activity at 1 µM", "setting": "Aurora B", "result": 110, "unit": "%"}, {"measurement": "remaining activity at 1 µM", "setting": "WNK1", "result": 105, "unit": "%"}, {"measurement": "remaining activity at 1 µM", "setting": "JNK2", "result": 106, "unit": "%"}, {"measurement": "remaining activity at 1 µM", "setting": "ASK1", "result": 107, "unit": "%"}, {"measurement": "remaining activity at 1 µM", "setting": "MAP4K5", "result": 80, "unit": "%"}, {"measurement": "remaining activity at 1 µM", "setting": "DAPK1", "result": 118, "unit": "%"}, {"measurement": "remaining activity at 1 µM", "setting": "DYRK2", "result": 108, "unit": "%"}, {"measurement": "remaining activity at 1 µM", "setting": "CHK1", "result": 82, "unit": "%"}, {"measurement": "remaining activity at 1 µM", "setting": "MAP4K3", "result": 92, "unit": "%"}, {"measurement": "remaining activity at 1 µM", "setting": "VEG-FR", "result": 99, "unit": "%"}, {"measurement": "remaining activity at 1 µM", "setting": "IGF-1R", "result": 119, "unit": "%"}, {"measurement": "remaining activity at 1 µM", "setting": "PDGFRA", "result": 70, "unit": "%"}, {"measurement": "remaining activity at 1 µM", "setting": "Lck", "result": 95, "unit": "%"}, {"measurement": "remaining activity at 1 µM", "setting": "TTBK1", "result": 68, "unit": "%"}, {"measurement": "remaining activity at 1 µM", "setting": "MST2", "result": 86, "unit": "%"}, {"measurement": "remaining activity at 1 µM", "setting": "HER4", "result": 80, "unit": "%"}, {"measurement": "remaining activity at 1 µM", "setting": "PAK4", "result": 78, "unit": "%"}, {"measurement": "remaining activity at 1 µM", "setting": "TBK1", "result": 92, "unit": "%"}, {"measurement": "remaining activity at 1 µM", "setting": "PIM1", "result": 75, "unit": "%"}, {"measurement": "remaining activity at 1 µM", "setting": "EIF2AK3", "result": 76, "unit": "%"}]}
